# Tested on: PBMC from HLA-A*02:01 Chagas disease patients and healthy donors
# Assay: Granzyme B ELISPOT in PBMC
# Format: cell-based, human
# Details: 30 h, non-peptide control spots subtracted
# Experimental: For the screening of the recognition of TcCA-2 epitopes by Chagas disease patients, 10 HLA-A*02:01 adult patients in the asymptomatic phase of the disease (IND) were enrolled. For cytotoxicity, functional activity determinations and phenotypic characterization another group of 19 HLA-A*02:01 adults Chagas disease patients and 9 healthy donors were analyzed. These patients were at the chronic stage of the disease and were considered to be at the asymptomatic phase (IND, n = 8) if there was no evidence of having cardiac or gastrointestinal disorders. Chronic Chagas cardiomyopathy patients (CCC, n = 11) were stratified into G1 to G3 stages following Kuschnir classification according to clinical criteria and radiological, electrocardiographic and echocardiography analyses. The number of patients was the one recommended by the Hospital Ethical Committee. […] The patients were enrolled in both studies (functional and phenotypic characterization, IND n = 6 and CCC n = 7) when the available number of purified PBMC (limited by the cellular number isolated from each subject) was enough for both analyses. Another four CCC patients had to be enrolled to perform the phenotypic analysis in order to reach statistical significance.
# The frequency of Granzyme B (GzB) producing cells was evaluated by ELISPOT assays using cryopreserved PBMC from Chagas disease patients and healthy donors as control. This protocol was carried out as described in [20]. Briefly, 96-well PVDF membrane-bottom plates (Millipore) were pre-wetted with 35% ethanol and washed five times with PBS. Subsequently, plates were coated with 100 μL of anti-GzB (5 μg/mL) monoclonal antibody (Mabtech) and incubated overnight at 4°C. Plates were washed with PBS and incubated with 200 μL/well of blocking solution (RPMI-1640-10% FCS) at room temperature for 30 minutes. Afterwards, 5 × 10^4 PBMC/well were added and incubated with 1 μM of each peptide for 30 h at 37°C with 5% CO2, in triplicates. As a positive control, the PBMC were stimulated with 50 ng/ml phorbol 12-myristate 13-acetate (PMA, Sigma) and 500 ng/ml ionomycin (Sigma), or 10 μg/mL of phytohaemaglutinin (PHA, Sigma). Supernatants were harvested and aliquoted at -80°C for subsequent cytokine secretion profile determination. After five washes, 100 μL/well of a 1 μg/mL solution of biotinylated GzB-specific antibody (Mabtech) was added in 0.5% iFCS in PBS, and the plates were incubated for 2 h at room temperature. Wells were extensively washed with PBS and incubated with 100 μL/well streptavidin-alkaline phosphatase (Sigma) at dilution of 1:6000 for 1 h at room temperature. After washing (5x) with PBS, 50 μL/well of substrate solution (NBT-BCIP substrate, Sigma) were added. The wells were incubated for 20–30 min at room temperature in the dark. The reaction was stopped by rinsing the plates with cold tap water. The spots were visualized in an AXIO PLAN 2 Imagine microscope and quantified using KS ELISPOT software. The results are expressed as the number of peptide-induced spots forming cell (SFC) x10^6 PBMC after subtracting the spot number of peptide un-stimulated PBMCs (basal response). The results were considered positive when a minimum of 20 SFCx10^6 PBMCs and of at least over twofold basal spot numbers were detected.
# The cytotoxic activity of the CD8^+ T cells specific for these four TcCA-2-derived epitopes was evaluated by secretion of GzB through ELISPOT assays. Thus, PBMC from 15 HLA-A*02:01 chagasic patients (8 IND and 7 CCC) and 9 healthy donors were incubated with the peptides under study. A positive GzB response was detected in 3 patients (2 IND and 1 CCC) out of 10 in response to incubation with the TcCA-2_657-666 peptide, 5 patients (3 IND and 2 CCC) out of 14 in response to the TcCA-2_442-451 peptide, 3 patients (3 CCC) out of 14 in response to the TcCA-2_607-615 peptide and 2 patients (2 IND) out of 11 in response to the TcCA-2_273-281 peptide (Table 3). Cytotoxic activities were not detected in any healthy donor. […]
# [1] = PBMC of patient CCC I 456, 1 μM peptide
# [2] = PBMC of patient CCC I 770, 1 μM peptide
# [3] = PBMC of patient CCC I 861, 1 μM peptide
# [4] = PBMC of patient CCC I 884, 1 μM peptide
# [5] = PBMC of patient CCC III 509, 1 μM peptide
# [6] = PBMC of patient IND 365, 1 μM peptide
# [7] = PBMC of patient IND 388, 1 μM peptide
# [8] = PBMC of patient IND 510, 1 μM peptide
# [9] = PBMC of patient IND 535, 1 μM peptide
# [10] = PBMC of patient IND 571, 1 μM peptide
# [11] = PBMC of patient IND 917, 1 μM peptide
# [12] = PBMC of subject HD 001, 1 μM peptide
# [13] = PBMC of subject HD 004, 1 μM peptide
# [14] = PBMC of subject HD 005, 1 μM peptide
# [15] = PBMC of subject HD 006, 1 μM peptide
# [16] = PBMC of subject HD 008, 1 μM peptide
# [17] = PBMC of subject HD 011, 1 μM peptide
# [18] = PBMC of subject HD 340, 1 μM peptide
# [19] = PBMC of subject HD 664, 1 μM peptide
# [20] = PBMC of patient CCC II 142, 1 μM peptide
# [21] = PBMC of patient CCC III 797, 1 μM peptide
# [22] = PBMC of patient IND 265, 1 μM peptide
# [23] = PBMC of patient IND 283, 1 μM peptide
Sequence,GzB [1],GzB [2],GzB [3],GzB [4],GzB [5],GzB [6],GzB [7],GzB [8],GzB [9],GzB [10],GzB [11],GzB [12],GzB [13],GzB [14],GzB [15],GzB [16],GzB [17],GzB [18],GzB [19],GzB [20],other results
AAAGDKLSL [TcCA-2_273-281],13 SFC/10^6,-7 SFC/10^6,8 SFC/10^6,7 SFC/10^6,0 SFC/10^6,7 SFC/10^6,33 SFC/10^6,-20 SFC/10^6,-27 SFC/10^6,67 SFC/10^6,13 SFC/10^6,1 SFC/10^6,0 SFC/10^6,-47 SFC/10^6,-7 SFC/10^6,-47 SFC/10^6,-20 SFC/10^6,0 SFC/10^6,0 SFC/10^6,,
ALQVTNHRYL [TcCA-2_657-666],,-7 SFC/10^6,50 SFC/10^6,0 SFC/10^6,0 SFC/10^6,0 SFC/10^6,7 SFC/10^6,-7 SFC/10^6,67 SFC/10^6,83 SFC/10^6,-10 SFC/10^6,0 SFC/10^6,-7 SFC/10^6,-40 SFC/10^6,0 SFC/10^6,-47 SFC/10^6,-7 SFC/10^6,1 SFC/10^6,0 SFC/10^6,,"GzB (PBMC of subject HD 017, 1 μM peptide): 0 SFC/10^6"
ALRNLRVFL [TcCA-2_607-615],13 SFC/10^6,0 SFC/10^6,-8 SFC/10^6,0 SFC/10^6,25 SFC/10^6,7 SFC/10^6,13 SFC/10^6,13 SFC/10^6,-7 SFC/10^6,,-20 SFC/10^6,0 SFC/10^6,-7 SFC/10^6,-47 SFC/10^6,7 SFC/10^6,-70 SFC/10^6,-7 SFC/10^6,0 SFC/10^6,0 SFC/10^6,53 SFC/10^6,GzB [21]: 27 SFC/10^6; GzB [22]: -100 SFC/10^6; GzB [23]: -20 SFC/10^6
TVFDASRSTV [TcCA-2_442-451],-7 SFC/10^6,13 SFC/10^6,0 SFC/10^6,7 SFC/10^6,50 SFC/10^6,27 SFC/10^6,0 SFC/10^6,0 SFC/10^6,-13 SFC/10^6,,40 SFC/10^6,0 SFC/10^6,0 SFC/10^6,-40 SFC/10^6,-7 SFC/10^6,-73 SFC/10^6,-20 SFC/10^6,1 SFC/10^6,1 SFC/10^6,80 SFC/10^6,GzB [21]: 7 SFC/10^6; GzB [22]: -13 SFC/10^6; GzB [23]: 47 SFC/10^6

# Reference: PMC4376724, “Differential Phenotypic and Functional Profiles of TcCA-2 -Specific Cytotoxic CD8^+ T Cells in the Asymptomatic versus Cardiac Phase in Chagasic Patients” (PLoS ONE, 2015)
